Assay: Cynomolgus monkey pharmacokinetics
Type: in vivo
Parameters: AUC: concentration or dose not given beside the values
Text: Example 53: Investigation of the Pharmacokinetic Characteristics of the Compounds of the Present Invention
SD rats: male, 180-250 g, purchased from Guangdong Medical Laboratory Animal Center. Cynomolgus monkey: male, 4-6 kg, purchased from Guangzhou Chunsheng Biological Research Institute Co., Ltd. Beagle dog: male, 8-12 kg, developed in Kanglong Chemical (Ningbo) New Drug Technology Co., Ltd.
Reagents: DMSO (dimethyl sulfoxide), PEG-400 (polyethylene glycol 400), normal brine, heparin, acetonitrile, formic acid, and propranolol (internal standard) are commercially available.
Instrumentation: Thermo Fisher Scientific LC-MS (U300 UPLC, TSQ […] ULTRA triple quadrupole mass spectrometer).
The compound was weighed and dissolved in DMSO-PEG-400-physiological brine (5:60:35, v/v/v) system. After the rats/monkeys were administered intravenously or by gavage, 200 μL of venous blood was collected at 5 min (not collected when administered by gavage), 15 min, 30 min, 1 h, 2 h, 4 h, 6 h, 8 h, and 24 h in heparinized EP tubes, centrifuged at 12000 rpm for 2 min, and the plasma was frozen at −80° C. for testing. A certain amount of the test substance was precisely weighed and dissolved in DMSO to 1 mg/mL, which was used as a stock solution. An appropriate amount of compound stock solution was accurately pipetted and diluted with acetonitrile to prepare a standard series of solutions. 20 μL of each of the above standard series solutions were accurately pipetted, added with 180 μL of blank plasma, vortexed and mixed to prepare plasma samples equivalent to plasma concentrations of 1, 3, 10, 30, 100, 300, 1000, 3000 and 5000 ng/mL. Two-sample analysis was performed for each concentration to establish a standard curve. 20 μL of plasma was taken out, added with 200 μL of internal standard propranolol (5 ng/mL) in acetonitrile, vortexed and mixed. It was centrifuged at 4000 rpm for 5 min, and the supernatant was collected for LC-MS analysis. LC-MS detection conditions were as follows:
Chromatographic column: Thermo Scientific […] GOLD C-18 UPLC column, 100*2.1 mm, 1.9 μm.
Mobile phase: water (0.1% formic acid)-acetonitrile for gradient elution according to the table below.
After blood drug concentrations being detected by LC-MS, WinNonlin 6.1 software was used to calculate pharmacokinetic parameters by non-compartmental model method.

- F (ig): 17.3%
- AUC (male, plasma, iv): 1430 ng·h/mL
- Cmax (male, plasma, iv): 2690 ng/mL
- Tmax (male, plasma, iv): 0.083 h
- clearance (male, plasma, iv): 12 mL/min/kg
- half-life (male, plasma, iv): 170 min
- Vd (male, plasma, iv, read-out: Vss): 0.65 L/kg
- AUC (male, plasma, po, ig): 2480 ng·h/mL
- Cmax (male, plasma, po, ig): 198 ng/mL
- Tmax (male, plasma, po, ig): 2.5 h
- half-life (male, plasma, po, ig): 424 min
SMILES: COc1nn([C@@H](Cc2ccccc2)C(=O)Nc2ccc(C(=O)O)cc2)c(=O)cc1-c1cc(Cl)ccc1C(C)=O [Example 19, (S)-4-(2-(4-(2-acetyl-5-chlorophenyl)-3-methoxy-6-oxopyridazin-1(6H)-yl)-3-phenylpropanamido)benzoic acid]

From patent US20230027295A1, “FXIA INHIBITORS AND PREPARATION METHOD THEREFOR AND PHARMACEUTICAL USE THEREOF” (Shenzhen Salubris Pharmaceuticals Co., Ltd., priority 2019, published 2023)
